# Assay results: ChEMBL document CHEMBL1201862, “PubChem BioAssay data set” (2004)
# Activity calls are given as the source filed them. For most assays here, no stated cut-off is given here; in the data, actives have a measured EC50 and inactives only a lower limit.
# Assays:
# [1] = Luminescence Cell-Based Dose Confirmation HTS to Identify Activators of 5'UTR Stem-Loop Driven Alpha-Synuclein mRNA Translation in H4 Neuroglioblastoma Cells. [Related pubchem assays: 1829 (Project Summary), 1814 (Primary HTS)]; type: functional
# [2] = biological target: ADP-ribosylation factor GTPase-activating protein 1 (Rattus norvegicus, UniProt Q62848); assay: Fluorescence polarization-based biochemical high throughput dose response screening assay to identify inhibitors of ADP-ribosylation factor GTPase activating protein 1 (ARFGAP1).; type: functional
# Sequence of ADP-ribosylation factor GTPase-activating protein 1 (Q62848 whole entry): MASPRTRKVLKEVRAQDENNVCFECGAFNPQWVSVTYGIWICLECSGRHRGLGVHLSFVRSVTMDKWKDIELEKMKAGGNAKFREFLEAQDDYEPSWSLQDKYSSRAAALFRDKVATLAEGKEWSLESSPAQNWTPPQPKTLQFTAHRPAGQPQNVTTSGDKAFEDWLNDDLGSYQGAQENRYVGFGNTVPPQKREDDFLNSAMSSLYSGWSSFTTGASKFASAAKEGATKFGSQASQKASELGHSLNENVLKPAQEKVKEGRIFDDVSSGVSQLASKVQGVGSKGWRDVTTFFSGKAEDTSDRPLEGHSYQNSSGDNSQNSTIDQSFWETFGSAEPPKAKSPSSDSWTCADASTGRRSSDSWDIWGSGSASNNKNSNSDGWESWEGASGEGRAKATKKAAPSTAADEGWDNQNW
# [3] = cells; type: functional, cell-based
# [4] = Luminescence Cell-Based Dose Response HTS to Identify Activators of Luciferase Translation or Activity in H4 […] Cells. [Related pubchem assays: 1829 (Project Summary), 1814 (Primary HTS)]; type: functional
# [5] = test system: H4; assay: Luminescence Cell-Based Dose Response HTS to Identify Activators of 5'UTR Stem-Loop Driven Prion Protein mRNA Translation in H4 Neuroglioblastoma Cells. [Related pubchem assays: 1829 (Project Summary), 1814 (Primary HTS)]; type: functional; conditions: Homo sapiens
# [6] = cells; type: functional, cell-based; remark: listed apart in the source
# [7] = biological target: T1, Sentrin-specific protease 8 (Homo sapiens, UniProt Q96LD8); type: functional
# T1 sequence (Q96LD8 whole entry): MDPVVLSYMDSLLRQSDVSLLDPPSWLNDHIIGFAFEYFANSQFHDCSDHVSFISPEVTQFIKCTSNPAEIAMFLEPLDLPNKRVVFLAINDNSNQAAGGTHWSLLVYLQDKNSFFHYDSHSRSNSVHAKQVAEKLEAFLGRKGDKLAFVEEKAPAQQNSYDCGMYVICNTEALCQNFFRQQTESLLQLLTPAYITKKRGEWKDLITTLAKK
# [8] = biological target: T2, Replicative DNA helicase DnaB (Mycobacterium tuberculosis, UniProt P9WMR3); assay: DnaB intein splicing inhibitors, dose response, biochemical, cell-free fluorescence (AID 449749); type: functional
# T2 sequence (P9WMR3 whole entry): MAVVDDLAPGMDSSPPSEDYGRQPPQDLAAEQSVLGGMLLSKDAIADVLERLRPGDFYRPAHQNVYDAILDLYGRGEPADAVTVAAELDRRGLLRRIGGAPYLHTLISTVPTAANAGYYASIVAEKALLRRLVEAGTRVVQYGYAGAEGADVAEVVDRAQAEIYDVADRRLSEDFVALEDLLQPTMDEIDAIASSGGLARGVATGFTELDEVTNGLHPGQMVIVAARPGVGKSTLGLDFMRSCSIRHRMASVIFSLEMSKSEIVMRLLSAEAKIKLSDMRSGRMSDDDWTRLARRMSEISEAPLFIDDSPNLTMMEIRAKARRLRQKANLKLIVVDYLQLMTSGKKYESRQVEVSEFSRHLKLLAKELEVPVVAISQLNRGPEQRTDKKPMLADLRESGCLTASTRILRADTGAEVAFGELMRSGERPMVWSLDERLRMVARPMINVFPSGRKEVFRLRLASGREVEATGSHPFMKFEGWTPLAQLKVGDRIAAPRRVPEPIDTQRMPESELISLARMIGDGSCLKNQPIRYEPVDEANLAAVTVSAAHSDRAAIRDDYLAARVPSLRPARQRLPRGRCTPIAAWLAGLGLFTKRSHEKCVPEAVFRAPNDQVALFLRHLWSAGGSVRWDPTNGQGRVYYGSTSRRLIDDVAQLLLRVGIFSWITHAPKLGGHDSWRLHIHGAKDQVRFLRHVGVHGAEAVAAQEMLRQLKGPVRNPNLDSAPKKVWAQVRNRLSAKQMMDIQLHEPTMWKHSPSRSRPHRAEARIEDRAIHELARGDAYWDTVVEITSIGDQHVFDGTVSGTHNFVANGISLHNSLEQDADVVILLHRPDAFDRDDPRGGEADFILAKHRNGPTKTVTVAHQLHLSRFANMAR
# [9] = biological target: T3, Protein RecA (Mycobacterium tuberculosis, UniProt P9WHJ3); assay: Fluorescence Cell-Free Homogeneous Dose Retest to Identify Inhibitors of RecA-Intein Splicing Activity. [Related pubchem assays (depositor defined):AID2097, AID2223, AID489010, AID492950]; type: functional
# T3 sequence (P9WHJ3 whole entry): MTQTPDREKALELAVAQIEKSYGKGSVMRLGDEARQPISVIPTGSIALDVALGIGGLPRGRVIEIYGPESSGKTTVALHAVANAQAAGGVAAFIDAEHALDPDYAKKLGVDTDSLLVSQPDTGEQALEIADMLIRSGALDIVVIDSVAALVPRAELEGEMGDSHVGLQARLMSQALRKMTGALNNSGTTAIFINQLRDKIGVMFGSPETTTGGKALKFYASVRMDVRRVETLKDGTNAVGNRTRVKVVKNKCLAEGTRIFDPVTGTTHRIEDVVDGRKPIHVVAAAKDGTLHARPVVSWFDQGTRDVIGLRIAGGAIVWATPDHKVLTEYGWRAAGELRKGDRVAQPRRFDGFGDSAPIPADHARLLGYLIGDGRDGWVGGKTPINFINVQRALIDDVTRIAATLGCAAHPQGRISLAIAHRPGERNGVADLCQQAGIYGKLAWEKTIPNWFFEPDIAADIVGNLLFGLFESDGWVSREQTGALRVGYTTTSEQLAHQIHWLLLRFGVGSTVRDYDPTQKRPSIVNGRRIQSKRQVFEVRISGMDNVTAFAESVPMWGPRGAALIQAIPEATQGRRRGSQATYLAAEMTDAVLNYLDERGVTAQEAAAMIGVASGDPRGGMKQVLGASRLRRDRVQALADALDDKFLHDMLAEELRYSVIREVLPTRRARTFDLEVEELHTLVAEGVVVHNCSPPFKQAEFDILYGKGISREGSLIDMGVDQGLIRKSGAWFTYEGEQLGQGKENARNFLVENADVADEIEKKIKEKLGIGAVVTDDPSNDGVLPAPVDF
# [10] = miR-122 activators in hepatoma reporter cells, dose response, cell-based, Huh7 psiCHECK-miR122, Renilla luciferase, cherry-picked (AID 651956); type: functional;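 further: huh7 hepatoma cells stably carrying a psiCHECK-2 miR-122 sensor plasmid; renilla luciferase signal reporting endogenous miR-122 activity after 48 h compound exposure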
# [11] = biological target: Sentrin-specific protease 1 (Homo sapiens, UniProt Q9P0U3); assay: Dose response confirmation of small molecule inhibitors of the catalytic domain of the SUMO protease, SENP1 in a FRET assay.; type: functional; conditions: read-out: IC50_Mean
# Sequence of Sentrin-specific protease 1 (Q9P0U3 whole entry, the tested form may be a part): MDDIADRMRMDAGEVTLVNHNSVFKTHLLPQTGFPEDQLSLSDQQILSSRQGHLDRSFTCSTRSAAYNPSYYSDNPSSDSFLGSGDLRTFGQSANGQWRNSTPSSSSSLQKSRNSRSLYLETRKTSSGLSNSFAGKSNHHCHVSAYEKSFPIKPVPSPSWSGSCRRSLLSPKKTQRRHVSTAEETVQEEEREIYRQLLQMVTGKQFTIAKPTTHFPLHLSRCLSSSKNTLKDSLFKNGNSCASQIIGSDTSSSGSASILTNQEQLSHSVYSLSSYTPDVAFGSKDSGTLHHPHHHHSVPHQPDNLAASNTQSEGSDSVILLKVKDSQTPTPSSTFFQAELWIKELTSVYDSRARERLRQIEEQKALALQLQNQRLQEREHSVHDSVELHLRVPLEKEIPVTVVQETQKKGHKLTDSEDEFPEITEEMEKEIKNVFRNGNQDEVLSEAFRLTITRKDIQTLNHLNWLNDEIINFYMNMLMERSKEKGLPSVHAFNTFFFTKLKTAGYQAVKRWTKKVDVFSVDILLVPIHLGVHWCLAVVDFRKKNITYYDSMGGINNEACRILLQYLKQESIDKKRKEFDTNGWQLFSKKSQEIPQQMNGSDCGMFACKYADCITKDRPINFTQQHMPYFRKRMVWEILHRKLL
compound,measurement,setting,value
Cc1ccc2nc(SCC(=O)c3ccccc3)nc(=O)n2c1,EC50,[1],33.8 µM (active)
same,IC50,[2],52.5 µM (inactive)
same,EC50,[3],37.8 µM (active)
same,EC50,[4],11 µM (active)
same,EC50,[5],24 µM (active)
same,EC50,[6],> 350 µM (not active)
COc1ccc(-c2cc(=O)n(CCC#N)[nH]2)cc1,IC50,[7],50.8 µM (active)
same,AC50,[8],2.05 µM (active)
same,EC50,[9],1.02 µM (active)
COc1cccc(NC(=O)N(C)C[C@@H]2Oc3ncc(C#Cc4ccncc4)cc3C(=O)N([C@@H](C)CO)C[C@H]2C)c1,AC50,[10],36.1 µM (active)
COc1ccc(OC)c(CCNC(=O)c2ccc3c(=O)[nH]c4c(C(=O)NC(C)C)sc(=S)n4c3c2)c1,IC50,[11],20.9 µM (inactive)
